Experimental data reported in the NIST ThermoML archive (doi:10.1016/j.jct.2014.07.004).
Numbers after ± are expanded uncertainties.

Details: Liquid, Closed cell (Static) method

Compound	vapor or sublimation pressure (327.12 K) [kPa]	vapor or sublimation pressure (338.15 K) [kPa]	vapor or sublimation pressure (343.15 K) [kPa]	vapor or sublimation pressure (348.15 K) [kPa]	vapor or sublimation pressure (353.15 K) [kPa]	vapor or sublimation pressure (277.96 K) [kPa]	vapor or sublimation pressure (282.06 K) [kPa]	vapor or sublimation pressure (286.15 K) [kPa]	vapor or sublimation pressure (290.25 K) [kPa]	vapor or sublimation pressure (294.35 K) [kPa]	vapor or sublimation pressure (302.54 K) [kPa]	vapor or sublimation pressure (306.64 K) [kPa]	vapor or sublimation pressure (310.74 K) [kPa]	vapor or sublimation pressure (314.83 K) [kPa]	vapor or sublimation pressure (298.15 K) [kPa]	vapor or sublimation pressure (318.15 K) [kPa]	vapor or sublimation pressure (323.15 K) [kPa]	vapor or sublimation pressure (333.15 K) [kPa]	vapor or sublimation pressure (288.15 K) [kPa]	vapor or sublimation pressure (293.15 K) [kPa]	also measured
CC1COC(=O)O1 (stereo not given) [4-methyl-1,3-dioxolan-2-one]	0.057	0.123 ± 0.13	0.185 ± 0.13	0.221 ± 0.13	0.287 ± 0.13																vapor or sublimation pressure (331.22 K): 0.078 ± 0.13 kPa
O [water]	15.18 ± 1.5					0.961 ± 0.13	1.243 ± 0.13	1.442 ± 0.15	1.947 ± 0.2	2.537 ± 0.26	4.068 ± 0.41	5.035 ± 0.51	7.056 ± 0.71	8.582 ± 0.86							vapor or sublimation pressure (298.44 K): 3.288 ± 0.33 kPa; vapor or sublimation pressure (318.93 K): 9.702 ± 0.97 kPa; vapor or sublimation pressure (323.03 K): 11.46 ± 1.2 kPa
COC(=O)OC [dimethyl carbonate]						2.298 ± 0.23	3.121 ± 0.32	4.019 ± 0.4	4.863 ± 0.49	6.311 ± 0.63	9.72 ± 0.98	11.7 ± 1.2	14.02 ± 1.4		6.982 ± 0.7	19.82 ± 2	23.07 ± 2.3				
O=C1OCCO1 [ethylene carbonate]		0.066 ± 0.13	0.087 ± 0.13	0.124 ± 0.13	0.175 ± 0.13													0.045			
CCOC(=O)OCC [diethyl carbonate]		11.56 ± 1.2	13.78 ± 1.4	16.09 ± 1.6	20.83 ± 2.1	0.401 ± 0.13	0.515 ± 0.13	0.666 ± 0.13				2.347 ± 0.24	3.012 ± 0.3		1.414 ± 0.14	4.582 ± 0.46	6.172 ± 0.62	9.088 ± 0.91	0.797 ± 0.13	1.031 ± 0.13	vapor or sublimation pressure (303.15 K): 1.844 ± 0.19 kPa; vapor or sublimation pressure (328.15 K): 7.162 ± 0.72 kPa
CCOC(=O)OC [ethyl methyl carbonate]						0.958 ± 0.13	1.285 ± 0.13						6.739 ± 0.68	7.885 ± 0.79	3.658 ± 0.37		12.28 ± 1.2	18.28 ± 1.8	2.008 ± 0.2	2.439 ± 0.25	vapor or sublimation pressure (283.15 K): 1.516 ± 0.16 kPa; vapor or sublimation pressure (303.15 K): 4.534 ± 0.46 kPa; vapor or sublimation pressure (308.15 K): 5.801 ± 0.58 kPa; vapor or sublimation pressure (328.15 K): 15.26 ± 1.5 kPa
